“Also recorded” adds a separate entry of the source. Where two headings read alike, the source gives them in different places.
Assays:
CYPSS204A = assay: Conversion reaction of substrates by Escherichia coli expression strain BP215; format: cell-based, Sphingomonas subterranea NBRC 16086; conditions: strain BP215, 28° C., 5 hours
Protocol: The temperature conditions applied during the PCR were 95° C./5 min, 30 cycles of (98° C./30 sec, 60° C./30 sec, and 68° C./2 min), and 68° C./10 min.
Analysis conditions: Using Chromolith speed rod RP18e (50×4.6 mm) column, 50%→100% CH3CN gradient (0 to 3 min) and 100% CH3CN (3 to 8 min) were used as a mobile phase, and detection was carried out at a flow rate of 2 ml/min using CAD™ (Charged Aerosol Detection) and MS.

[1] = biological target: T1, Novosphingobium aromaticivorans ATCC 700278 P450scc CYP204A1, wild type, SEQ ID NO: 23 (Novosphingobium aromaticivorans, UniProt A4XF07); assay: Kinetics analysis of CYP204A1 with 4-cholesten-3-one (conversion to progesterone, cell-free extract)
T1 sequence (A4XF07 1-473): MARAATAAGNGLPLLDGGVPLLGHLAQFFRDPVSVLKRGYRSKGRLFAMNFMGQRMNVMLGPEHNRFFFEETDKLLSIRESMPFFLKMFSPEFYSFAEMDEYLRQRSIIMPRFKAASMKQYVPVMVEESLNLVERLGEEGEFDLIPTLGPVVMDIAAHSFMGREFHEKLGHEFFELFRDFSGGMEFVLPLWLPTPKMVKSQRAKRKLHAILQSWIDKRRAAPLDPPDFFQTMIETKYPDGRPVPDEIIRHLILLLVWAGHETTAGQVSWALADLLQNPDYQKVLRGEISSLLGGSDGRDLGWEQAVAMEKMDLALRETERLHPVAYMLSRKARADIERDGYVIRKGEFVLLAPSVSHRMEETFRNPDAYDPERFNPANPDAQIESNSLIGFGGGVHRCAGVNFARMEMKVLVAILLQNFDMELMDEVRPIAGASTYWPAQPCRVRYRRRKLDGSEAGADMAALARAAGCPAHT

CYP204A1 = conditions: strain BP172, same reaction as Example 6 (28° C., 5 hours)
Protocol: Novosphingobium aromaticivorans (ATCC 700278) was inoculated into an L medium, and it was then cultured at 30° C. for 2 days. Thereafter, genomic DNA was extracted from the cell mass obtained in the same manner as that of Example 1. A fragment comprising a CYPSS204A1 gene and a ferredoxin gene located downstream thereof was amplified from the above-described genomic DNA by using a primer CYP-5F (SEQ ID NO: 9) and a primer CYP-6R (SEQ ID NO: 10) and also using La Taq polymerase (manufactured by Takara Bio INC.). The temperature conditions applied during this operation were 94° C./3 min, 30 cycles of (98° C./20 sec, 63° C./30 sec, and 68° C./2 min), and 72° C./5 min.
Escherichia coli BL21(DE3) was transformed with this plasmid, and the obtained cell strain was named as BP172.
The Escherichia coli expression strain BP215 was inoculated into 2 ml of an M9 mix medium (Na2HPO4: 0.68%, KH2PO4: 0.3%, NaCl: 0.05%, NH4C;: 0.01%, Casamino acid: 1%, D-Glucose: 0.4%, CaCl2: 0.1 mM, MgCl2: 1 mM, Thiamine: 0.002%, FeSO4: 0.1 mM, Carbenicillin: 0.005%), and it was then subjected to shaking culture at 30° C. for 17 hours, so as to obtain pre-culture solution. 0.25 ml of this pre-culture solution was inoculated into 25 ml of the main culture medium (Na2HPO4: 0.68%, KH2PO4: 0.3%, NaCl: 0.05%, NH4Cl: 0.01%, Casamino acid: 1%, CaCl2: 0.1 mM, MgCl2: 1 mM, Thiamine: 0.002%, FeSO4: 0.1 mM, Carbenicillin: 0.005%, Overnight Express™ solution: 7%, 5-Aminolevlic acid: 0.008%) using Overnight Express™ Autoinduction System (Novagen Cat. No. 71300-4), and it was then subjected to shaking culture at 25° C. for 24 hours. 5 ml of the obtained main culture solution was centrifuged (3500 rpm, 10 minutes) to obtain cell mass, and 1 ml of CV2 buffer (50 mM (pH) potassium phosphate buffer containing glycerol: 2%, carbenicillin: 0.005%, and isopropyl β-D-1-thiogalactopyranoside: 0.1 mM) was added to the obtained cell mass. Thereafter, 0.01 ml of the methanol solution of 1% 4-cholesten-3-one and 0.02 ml of an aqueous solution of 25% methyl-β-cyclodextrin were added to the mixed solution, and the obtained mixture was then shaken at 28° C. for 5 hours for the reaction. After completion of the reaction, 4 ml of methanol was added to the reaction solution, and they were then fully mixed. The obtained mixture was centrifuged, and the upper layer was then analyzed by HPLC.
As substrates, 4-cholesten-3-one, cholesterol, 7-dehydrocholesterol, ergosterol, 13-sitosterol, stigmasterol, campesterol, desmosterol, (20S)-20-hydroxycholest-4-en-3-one, (22R)-22-hydroxycholest-4-en-3-one, (20R,22R)-20,22-dihydroxycholest-4-en-3-one, and (20R,22S)-20,22-dihydroxycholest-4-en-3-one were used. Each substrate was subjected to the same reaction as that of Example 6, separately, and the generated product was then analyzed by HPLC.

[2] = biological target: T2, Sphingomonas subterranea NBRC16086 P450scc CYPSS204A (CYPSS), wild type, SEQ ID NO: 2 (Novosphingobium subterraneum, UniProt A0A0B8ZS99); assay: Kinetics analysis of CYPSS with 4-cholesten-3-one (conversion to progesterone, cell-free extract)
T2 sequence (A0A0B8ZS99 1-472): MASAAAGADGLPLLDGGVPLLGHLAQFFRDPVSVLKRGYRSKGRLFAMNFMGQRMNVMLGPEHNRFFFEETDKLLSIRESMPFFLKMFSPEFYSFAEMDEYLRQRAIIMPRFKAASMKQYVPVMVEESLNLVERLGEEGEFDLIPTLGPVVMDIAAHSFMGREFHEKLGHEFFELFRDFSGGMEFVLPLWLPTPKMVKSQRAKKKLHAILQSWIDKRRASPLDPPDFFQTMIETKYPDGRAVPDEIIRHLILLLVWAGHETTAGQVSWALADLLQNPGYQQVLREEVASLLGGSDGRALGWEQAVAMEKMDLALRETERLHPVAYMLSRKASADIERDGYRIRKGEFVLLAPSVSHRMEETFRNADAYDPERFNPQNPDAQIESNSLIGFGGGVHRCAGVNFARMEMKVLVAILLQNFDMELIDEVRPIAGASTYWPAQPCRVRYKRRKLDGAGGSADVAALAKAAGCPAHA

[3] = 4-cholesten-3-one 0.1 to 500 μM, pH 7.5, 15° C., 60 minutes, Lineweaver-Burk plot
[4] = substrate concentration increased from 10 μM to 100 μM, pH 7.5, 15° C.

Which results are given for `CC(C)CCC[C@@H](C)[C@H]1CC[C@H]2[C@@H]3CCC4=CC(=O)CC[C@]4(C)[C@H]3CC[C@]12C` [4-cholesten-3-one]?
accumulated amount of side-chain cleavage product (CYPSS204A): 78.0 mg/L; added substrate remained (CYPSS204A): not detected; Conversion rate (CYPSS204A; to progesterone, pregnenolone or 7-dehydropregnenolone): 78%; Vmax [1, 3]: 47.4 mmol/min/mol; Vmax, relative activity ([1]; relative to CYP204A1 (1.00)): 1.00; decrease rate of the enzyme protein activity (substrate inhibition) [1, 4]: 33%; Conversion rate (CYP204A1): 84.0%; Conversion rate (CYP204A1; listed as 4Chol): 84%; Vmax [2, 3]: 78.7 mmol/min/mol; substrate inhibition ([2]; 4-cholesten-3-one, in words): hardly undergoes substrate inhibition; also recorded: substrate inhibition of CYPSS was lower than that of CYP204A1; Vmax, times higher than that of CYP204A1 ([2]; compared with CYP204A1): approximately 1.7 times; Vmax, relative activity ([2]; relative to CYP204A1 (1.00)): 1.66; decrease rate of the enzyme protein activity (substrate inhibition) [2, 4]: 10%
